Series [1] can be described thus: Plasma stability assay, human plasma. Format: in vitro ADME. Conditions: pooled plasma, 37 °C. The method, then: (§1) Test compounds (10 μM) were incubated with mouse, rat, or human pooled plasma from 50 donors (Biowest) at 37 °C for 20, 60, and 120 min. Reactions were terminated by adding four volumes of ice-cold methanol, followed by vigorous mixing. Samples were kept at −20 °C for 30 min and then stored at 4 °C overnight. The next day, samples were centrifuged, and supernatants were diluted with four volumes of 30% methanol in water. Zero time points were prepared by adding ice-cold methanol to the compound prior to the addition of plasma. Samples were then analyzed on an Echo MS system (SCIEX) using multiple reaction monitoring (MRM). The only exception was compound 3af, which was analyzed by LC–MS/MS (SCIEX 6500 triple quadrupole) due to its weak ionization in Echo-MS.

The nature of series [2]: Plasma stability assay, mouse plasma. Format: in vitro ADME. Conditions: 37 °C. The method, then:
as §1

Series [3] in a line: Plasma stability assay, rat plasma. Conditions: 37 °C. Format: in vitro ADME. The method, then: as §1
A short description of series [4]: Microsomal stability assay, human liver microsomes. Conditions: pooled liver microsomes, pH 7.4, human liver microsomes 0.5 mg/mL, NADPH. The format is in vitro ADME. The method, then:
(§2) Microsomal stability was determined using 0.5 mg/mL of pooled human, mouse, or rat liver microsomes (Thermo Fisher Scientific) in 90 mM TRIS-Cl buffer (pH 7.4) containing 2 mM NADPH and 2 mM MgCl2. Test compounds (10 μM) were added, and the resulting mixture was incubated at 37 °C for 10, 60, 120, and 180 min. The reactions were terminated by the addition of four volumes of ice-cold methanol, followed by vigorous mixing. The samples were left at −20 °C for 30 min and then stored at 4 °C overnight. The next day, samples were centrifuged, and supernatants were diluted with four volumes of 30% methanol in water. Zero time points were prepared by adding ice-cold methanol to the mixture of compounds and cofactors prior to the addition of microsomes. The samples were then analyzed using the Echo-MS system (SCIEX) with MRM transition monitoring, except for compound 3af, which was analyzed by LC–MS/MS as described in the plasma stability assay.

A short description of series [5]: Microsomal stability assay, mouse liver microsomes. Format: in vitro ADME. Conditions: pooled liver microsomes, pH 7.4, mouse liver microsomes 0.5 mg/mL, NADPH. The method, then:
as §2

Series [6] in a line: Microsomal stability assay, rat liver microsomes. The format is in vitro ADME. Conditions: pooled liver microsomes, pH 7.4, rat liver microsomes 0.5 mg/mL, NADPH. The method, then:
as §2

The nature of series [7]: Cytotoxicity assay, HEK293. Conditions: human, HEK293 cells, viability dye, flow cytometry. The format is cell-based. The method, then: (§3) To evaluate in vitro cytotoxicity and support its potential application in inflammatory and fibrotic disease models, the following panel of cell lines, representing the relevant biological systems, was used: HEK293, HepG2, THP1, Jurkat E6.1, and LX2. HEK293, HepG2, and Jurkat E6.1 cells were seeded at 400,000 cells/mL, THP1 cells at 500,000 cells/mL, and LX2 cells at 200,000 cells/mL in 96-well plates (cell culture-treated, VWR) in 100 μL/well. Cells were treated with the tested compounds in a serial dilution (300, 100, 33.3, 11.1, and 3.7 μM) for 24 h. Untreated cells served as negative controls to establish the baseline viability threshold. Cell viability was assessed using a viability dye (Zombie Violet Fixable Viability Kit, BioLegend) following the manufacturer’s instructions and analyzed by flow cytometry (see below).
(§4) Cells or beads from screening assays prepared for flow cytometry were analyzed by the CytoFlex S instrument (Beckman Coulter). Data acquisition was performed using CytExpert software (v2.5, Beckman Coulter). Debris was excluded by forward and side scatter gating, followed by doublet exclusion. Data were analyzed using FlowJo software (v10, BD Biosciences).

A short description of series [8]: Cytotoxicity assay, HepG2. The format is cell-based. Conditions: human, HepG2 cells, viability dye, flow cytometry. The method, then:
as §3, §4

Series [9] in a line: Cytotoxicity assay, THP1. Conditions: human, THP1 cells, viability dye, flow cytometry. Format: cell-based. The method, then:
as §3, §4

The nature of series [10]: Cytotoxicity assay, Jurkat E6.1. The format is cell-based. Conditions: human, Jurkat E6.1 cells, viability dye, flow cytometry. The method, then: as §3, §4
The nature of series [11]: Cytotoxicity assay, LX2. Format: cell-based. Conditions: human, LX2 cells, viability dye, flow cytometry. The method, then: as §3, §4
Series [12] is described as follows: Cytotoxicity assay, panel of five human cell lines. The format is cell-based. Conditions: HEK293, HepG2, THP-1, Jurkat E6.1 and LX2 cells; summary in text across panel of five human cell lines. The method, then: as §3, §4
Series [13] addresses T1, intracellular Gal-3 in THP1 cells (Homo sapiens, UniProt P17931).
T1 construct: Untreated cells served as negative and baseline controls representing maximum intracellular Gal-3 levels; endogenous in cells; host or cells: THP1 (monocyte-like or PMA-differentiated macrophage-like)
As to the kind of experiment: Intracellular Gal-3 target engagement in THP1 cells (flow cytometry, MFI). The format is cell-based. Conditions: 2 h. The method, then:
THP1 cells were used to assess the binding of the tested compounds to Gal-3. Cells were either maintained in suspension as undifferentiated monocyte-like cells or differentiated into macrophage-like cells by overnight treatment with phorbol 12-myristate 13-acetate (PMA, Sigma-Aldrich) at a final concentration of 10 ng/mL. […] Untreated cells served as negative and baseline controls representing maximum intracellular Gal-3 levels. Cells were then harvested and intracellularly stained either with galectin-3 monoclonal antibody eF660 (Invitrogen, Thermo Fisher Scientific) or a relevant isotype antibody (Invitrogen, Thermo Fisher Scientific) for flow cytometric analyses (see below). A dose-dependent decrease in Gal-3 signal upon compound treatment was used to assess intracellular target engagement expressed as median fluorescent intensity (MFI).
as §4

In series [14] the test system is LPS-stimulated macrophage-like THP1 cells (TNFα secretion). The series can be described thus: Anti-inflammatory potential: TNFα secretion in LPS-stimulated PMA-differentiated THP1 cells. The format is cell-based, human. Conditions: (+)PMA THP1, 1 μg/mL LPS, 24 h, up to 300 μM. The method, then: Cells were differentiated overnight into macrophage-like phenotypes by treatment with 10 ng/mL PMA and subsequently stimulated with 1 μg/mL lipopolysaccharide (LPS; Invitrogen, Thermo Fisher Scientific) to induce a proinflammatory response. […] After 24 h of LPS and compound exposure, cell culture supernatants were collected and analyzed for TNFα levels using a bead-based multiplex immunoassay (ProcartaPlex Human Basic Kit and TNFα Human ProcartaPlex Simplex Kit, both Invitrogen, Thermo Fisher Scientific). Flow cytometry readout was used as previously described. TNFα concentrations were calculated using a standard curve generated in GraphPad Prism 10 (GraphPad Software, San Diego, CA). Cells or beads from screening assays prepared for flow cytometry were analyzed by the CytoFlex S instrument (Beckman Coulter). Data acquisition was performed using CytExpert software (v2.5, Beckman Coulter). Debris was excluded by forward and side scatter gating, followed by doublet exclusion. Data were analyzed using FlowJo software (v10, BD Biosciences).

Series [15] concerns the target Gal-1. Conditions: previously reported inhibitor, Figure 1A; ref Galecto Biotech; cited from earlier work.
Series [16] addresses Gal-3C. Conditions: read-out: Kd (Gal-3C); previously reported inhibitor, Figure 1A; ref Galecto Biotech; cited from earlier work.

The values that follow come from PMC12670426 (Journal of Medicinal Chemistry, 2025).

T1 sequence (P17931 whole entry): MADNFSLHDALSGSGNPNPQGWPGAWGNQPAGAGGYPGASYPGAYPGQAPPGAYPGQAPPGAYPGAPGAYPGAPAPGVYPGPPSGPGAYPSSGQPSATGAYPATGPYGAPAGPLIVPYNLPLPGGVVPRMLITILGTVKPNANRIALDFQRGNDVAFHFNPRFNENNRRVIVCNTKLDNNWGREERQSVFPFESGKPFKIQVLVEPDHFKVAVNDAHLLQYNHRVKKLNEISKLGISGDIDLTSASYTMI

As for `OC[C@H]1O[C@@H](S[C@@H]2O[C@H](CO)[C@H](O)[C@H](n3cc(-c4cccc(F)c4)nn3)[C@H]2O)[C@H](O)[C@@H](n2cc(-c3cccc(F)c3)nn2)[C@H]1O` [GB0139, reference compound], the fraction remaining at 2 h, 10 μM in [1] stood at 110 ± 5%; in series [2], 68 ± 3%; in series [3], 78 ± 8%. Moreover, the microsomal CLint at 10 μM in series [4] is 12 ± 6 µL/min/mg; in [5], 6 ± 5 µL/min/mg; in [6], below 2 µL/min/mg. Besides, the CC50 at 24 h in series [7], in series [8], in series [9], in series [10], in series [11] and in [12] was above 300 µM throughout. The “intracellular Gal-3 signal (MFI), macrophage-like THP1 cells” value in series [13] ((+)PMA differentiated THP1, 3.7–300 μM) is given as “reduced the Gal-3 signal”. Moreover, the “intracellular Gal-3 signal (MFI), monocyte-like THP1 cells” value in series [13] ((−)PMA undifferentiated THP1, 3.7–300 μM) was “minimal effect”. Further, in series [14], the “LPS-induced TNFα secretion” value is given as “effectively reduced TNFα secretion”. Besides, the Kd is 0.012 µM in [15] and 0.014 µM in [16].
